For one data set, the system named is HeLa. Description: Cytotoxicity against human HeLa cells after 48 hrs by alamar blue assay. In kind it is functional, cell-based.
The test system of a further data set is A549. Description: Cytotoxicity against human A549 cells after 48 hrs by alamar blue assay. The class given is functional, cell-based. Particulars: A549, 48 h. For orientation: Resazurin is reduced to fluorescent resorufin, in cell work by metabolically active cells.
In a further data set the test system is HT-29. Put plainly: Cytotoxicity against human HT-29 cells after 48 hrs by alamar blue assay. The class given is functional, cell-based. The settings on record: HT-29, 48 h.
A short description of data set [1]: Cytotoxicity against human PC3 cells after 48 hrs by alamar blue assay. In kind it is functional, cell-based. The settings on record: PC-3, 48 h.
A further data set has as its system MDA-MB-231. Put plainly: Cytotoxicity against human MDA-MB-231 cells after 48 hrs by alamar blue assay. In kind it is functional, cell-based. Particulars: MDA-MB-231, 48 h.
For another data set, the system named is Artemia. Description: Cytotoxicity against brine shrimps larvae assessed as mortality after 48 hrs. The class given is organism-based. The settings on record: in vivo.

pIC50: −log10 of the molar value. Where a SMILES comes first, the peptide text is derived from it. [ ]: non-standard residue; d: D form. The star is where a group is joined. Oct7ynoyl(2R-Me) = C#CCCCC[C@@H](C)C(=O)*; NMeF = CN[C@@H](Cc1ccccc1)C(=O)O; NMeI = CC[C@H](C)[C@H](NC)C(=O)O; NMeV = CN[C@H](C(=O)O)C(C)C; NMeA = CN[C@@H](C)C(=O)O

By pIC50 is commonly meant the negative decadic logarithm of the IC50, by convention in mol/L. High values mean a small IC50, low ones a large IC50.

Take `C#CCCCC[C@@H](C)C(=O)N(C)[C@H](C(=O)N(C)[C@H](C(=O)N[C@H](C(=O)N(C)[C@H](C(=O)N[C@@H](C)C(N)=O)[C@@H](C)CC)[C@@H](C)CC)C(C)C)C(C)C` ({Oct7ynoyl(2R-Me)}-[NMeV][NMeV]I[NMeI]A-NH2): the pIC50 with HeLa is 4.77; with A549 it was 4.23; in the data set on HT-29, 4.04; in data set [1] it was 4.21; with MDA-MB-231, 3.09.

As to `COc1cccc2c1C(=O)c1c(O)c3c(c(O)c1C2=O)C[C@@](O)(C(=O)CO)C[C@@H]3O[C@H]1C[C@H](N)[C@H](O)[C@H](C)O1` [DOXORUBICIN], the Activity entry in the data set on Artemia is reported as “Non-toxic”. For the same molecule, the pIC50 is 4.85 with A549 and 4.77 in data set [1].

For `C#CCCCC[C@@H](C)C(=O)N(C)[C@H](C(=O)N(C)[C@H](C(=O)N[C@H](C(=O)N(C)[C@@H](C)C(=O)N(C)[C@@H](Cc1ccccc1)C(N)=O)C(C)C)C(C)C)C(C)C` [ALMIRAMIDE B] ({Oct7ynoyl(2R-Me)}-[NMeV][NMeV]V[NMeA][NMeF]-NH2), the negative logarithm of the IC50 (pIC50) is 4.28 with HeLa; 4.12 in the data set with A549; 4.00 in the data set on HT-29; 3.97 in data set [1]; 4.89 with MDA-MB-231.

For the origin of these results see ChEMBL document CHEMBL3351572, “Almiramide D, cytotoxic peptide from the marine cyanobacterium Oscillatoria nigroviridis” (Bioorg Med Chem, 2014).
